Reference: US20080234188A1, “Antimicrobial Peptides” (The Hospital for Sick Children, priority 2001, published 2008)
In brackets after ≈: the same amount, converted by molar mass. Where a SMILES comes first, the peptide text is derived from it. [ ]: non-standard residue; d: D form.

Legend:
[1] = test system: P. aeruginosa ATCC27853; type: cell-based, Pseudomonas aeruginosa
Source text: (§1) The bacterial strains used were E. coli C498, E. coli C500, Escherichia coli UB1005 and its antibiotic supersusceptible derivative DC2 (22); a clinical isolate of Staphylococcus epidermidis (C621); coryneform bacterial strain Corynebacterium xerosis (C875); and E. coli ATCC 25922, Staphylococcus aureus ATCC 25923, Enterococcus faecalis ATCC 29212, Bacillus subtilis ATCC 6633 and Pseudomonas aeruginosa ATCC 27853, all from American Type Culture Collection.
(§2) Peptide antibacterial activity was assessed by the method of R. Hancock et al. (Wu & Hancock (1999), J. Biol. Chem., v. 274, pp. 29-35). Test strains of bacteria from Mueller Hinton agar (MHA) plates were inoculated into 5 ml Mueller Hinton Broth (MHB) in tubes and grown overnight at 37° C. on a shaker (180 rpm). Serial dilutions of test peptides (at 10 times the required test concentrations) were made in 0.01% acetic acid, 0.2% BSA, in polypropylene or coated glass tubes as follows: the test peptide was (a) dissolved in distilled water at 20 times the required maximum concentration (enough final volume for all tests to be performed on a given day); (b) diluted into an equal volume of 0.02% acetic acid, 0.4% BSA to give 10 times the required maximum concentration; (c) serial doubling dilutions were performed in 0.01% acetic acid, 0.2% BSA to provide serial dilutions of peptides at 10 times the required test concentrations, e.g., 640, 320, 160, . . . 2.5 μg/ml. (No deleterious effects of long-term storage of peptides in these media have been detected). Overnight bacterial cultures were diluted in MHB to give 2−7×10^5 colony forming units/ml. Bacterial suspension (100 μl) was dispensed in each well; controls without bacteria were maintained in parallel. To each well was added 11 μl of 10× test peptide and plates were incubated at 37° C. for 18-24 hours, and checked again at 40-48 hours. Plates were read visually and at 600 nm in a microplate reader (Molecular Devices).
(§3) A further number of the peptides of the invention were tested for antimicrobial activity against a range of Gram-positive and Gram-negative bacteria by the assay described immediately before Example 1.

[2] = test system: E. coli DC2; assay: Assay of antibacterial activity (MIC), E. coli DC2; type: cell-based, Escherichia coli; conditions: Table 5A
Summary of the method: (§4)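 Growth is scored visually and by absorbance at 600 nm after 18-24 h at 37° C, with a second check at 40-48 h. Bacteria are seeded at 2−7×10^5 CFU/ml in Mueller Hinton broth against twofold peptide dilutions made up in 0.01% acetic acid, 0.2% BSA.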

[3] = test system: E. coli ATCC25922; type: cell-based
Source text: as §1, §2, §3

[4] = test system: E. coli UB1005; type: cell-based, Escherichia coli; conditions: UB1005
Summary of the method: as §4

[5] = test system: Staphylococcus epidermidis (C621); type: cell-based; conditions: C621
Summary of the method: (§5)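 Broth microdilution in Mueller Hinton Broth, inoculum 2−7×10^5 CFU/ml. Peptides serially doubled in 0.01% acetic acid, 0.2% BSA and added at 10× final concentration. Incubation 37° C for 18-24 h, rechecked at 40-48 h; growth read visually and at 600 nm.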

[6] = test system: Corynebacterium xerosis (C875); type: cell-based
Summary of the method: as §5

[7] = test system: Human RBC; type: cell-based
Procedure: (§6) Erythrocytes from heparinized rabbit or human blood were washed three times with phosphate-buffered saline (PBS; 5 mM phosphate buffer, 0.14 M saline, pH 7.3), and centrifuged at 1000×g for 15 min at 4° C. The erythrocytes were diluted with PBS to 4% (v/v). Dilutions of the peptides in PBS were plated in 100 μl volumes in microtitre plates (Costar 3790, polypropylene) together with 100μl of the erythrocyte suspension. PBS was used as control and 100% lysis was determined in 0.1% Triton X-100. The plates were incubated at 37° C. for 1 h and then centrifuged at 1000×g for 5 min. 100 μl aliquots of the supernatant were transferred to microtitre plates (Nunc, polystyrene), and the release of hemoglobin was monitored by measurement of the absorbance at 540 nm in a microplate reader. The results are shown in Table 6, for peptide concentrations of […]. With only one or two exceptions, little or no hemolysis was seen.

[8] = test system: Rabbit RBC; type: cell-based
Procedure: as §6

[9] = test system: B. subtilis ATCC6633; type: cell-based, Bacillus subtilis
Source text: as §1, §2, §3

[10] = test system: S. aureus ATCC25923; type: cell-based, Staphylococcus aureus
Source text: as §1, §2, §3

[11] = test system: E. faecalis ATCC29212; type: cell-based, Enterococcus faecalis
Source text: as §1, §2, §3

Row | SMILES | MIC P. aeruginosa ATCC27853 [1] | MIC E. coli DC2 [2] | MIC E. coli ATCC25922 [3] | MIC E. coli UB1005 [4] | MIC S. epidermidis C621 [5] | MIC C. xerosis C875 [6] | Human RBC (% lysis) 50 μM [7] | Human RBC (% lysis) 200 μM [7] | Rabbit RBC (% lysis) 50 μM [8] | Rabbit RBC (% lysis) 200 μM [8] | MIC B. subtilis ATCC6633 [9] | MIC S. aureus ATCC25923 [10] | MIC E. faecalis ATCC29212 [11]
1 | C[C@H](NC(=O)[C@H](C)NC(=O)[C@H](C)NC(=O)[C@H](Cc1ccccc1)NC(=O)[C@H](C)NC(=O)[C@H](C)NC(=O)[C@H](Cc1c[nH]c2ccccc12)NC(=O)[C@H](C)NC(=O)[C@H](C)NC(=O)[C@H](Cc1ccccc1)NC(=O)[C@H](C)NC(=O)[C@H](C)NC(=O)[C@H](C)NC(=O)[C@H](C)NC(=O)[C@H](C)NC(=O)[C@H](Cc1ccccc1)NC(=O)[C@H](C)NC(=O)[C@H](C)NC(=O)[C@H](C)NC(=O)[C@H](CCCCN)NC(=O)[C@H](CCCCN)NC(=O)[C@H](CCCCN)NC(=O)[C@H](CCCCN)NC(=O)[C@H](CCCCN)NC(=O)[C@@H](N)CCCCN)C(N)=O [Peptide F25-6K] (H-KKKKKKAAAFAAAAAFAAWAAFAAA-NH2; N-terminus assumed) | 32 µM (≈ 79.4 µg/mL) | 8 µM (≈ 19.8 µg/mL) | 16 µM (≈ 39.7 µg/mL) | 16 µM (≈ 39.7 µg/mL) | 4 µM (≈ 9.92 µg/mL) | 1 µM (≈ 2.48 µg/mL) | 11 % lysis | 17 % lysis |  |  |  |  | 
2 | C[C@H](NC(=O)[C@H](C)NC(=O)[C@H](C)NC(=O)[C@H](Cc1c[nH]c2ccccc12)NC(=O)[C@H](Cc1ccccc1)NC(=O)[C@H](C)NC(=O)[C@H](C)NC(=O)[C@H](C)NC(=O)[C@H](C)NC(=O)[C@H](CCCCN)NC(=O)[C@H](CCCCN)NC(=O)[C@H](CCCCN)NC(=O)[C@H](CCCCN)NC(=O)[C@H](CCCCN)NC(=O)[C@@H](N)CCCCN)C(=O)N[C@@H](C)C(=O)N[C@@H](Cc1ccccc1)C(N)=O [KAFW, KKKKKKAAAAFWAAAAF-NH2] (H-KKKKKKAAAAFWAAAAF-NH2; N-terminus assumed) | 16 µM (≈ 29.4 µg/mL) | 0.5 µM (≈ 0.918 µg/mL) | 16 µM (≈ 29.4 µg/mL) | 2 µM (≈ 3.67 µg/mL) | 8 µM (≈ 14.7 µg/mL) | 0.5 µM (≈ 0.918 µg/mL) | 0 % lysis | 0 % lysis | 0 % lysis | 1 % lysis |  |  | 
3 | C[C@H](NC(=O)[C@H](C)NC(=O)[C@H](Cc1ccccc1)NC(=O)[C@H](C)NC(=O)[C@H](C)NC(=O)[C@H](Cc1ccccc1)NC(=O)[C@H](C)NC(=O)[C@H](C)NC(=O)[C@H](Cc1ccccc1)NC(=O)[C@H](C)NC(=O)[C@H](C)NC(=O)[C@H](CCCCN)NC(=O)[C@H](CCCCN)NC(=O)[C@H](CCCCN)NC(=O)[C@H](CCCCN)NC(=O)[C@H](CCCCN)NC(=O)[C@@H](N)CCCCN)C(N)=O [Peptide 3F17-6K, KKKKKKAAFAAFAAFAA-NH2] (H-KKKKKKAAFAAFAAFAA-NH2; N-terminus assumed) | 16 µM (≈ 28.7 µg/mL) |  | 16 µM (≈ 28.7 µg/mL) | 2 µM (≈ 3.59 µg/mL) | 8 µM (≈ 14.4 µg/mL) |  | 0 % lysis | 0 % lysis | 0 % lysis | 2 % lysis | 16 µM (≈ 28.7 µg/mL) | >32 µM | >32 µM
4 | C[C@H](NC(=O)[C@H](C)NC(=O)[C@H](Cc1c[nH]c2ccccc12)NC(=O)[C@H](C)NC(=O)[C@H](C)NC(=O)[C@H](Cc1c[nH]c2ccccc12)NC(=O)[C@H](C)NC(=O)[C@H](C)NC(=O)[C@H](Cc1c[nH]c2ccccc12)NC(=O)[C@H](C)NC(=O)[C@H](C)NC(=O)[C@H](CCCCN)NC(=O)[C@H](CCCCN)NC(=O)[C@H](CCCCN)NC(=O)[C@H](CCCCN)NC(=O)[C@H](CCCCN)NC(=O)[C@@H](N)CCCCN)C(N)=O [Peptide W17-6K, KKKKKKAAWAAWAAWAA-NH2] (H-KKKKKKAAWAAWAAWAA-NH2; N-terminus assumed) | 8 µM (≈ 15.3 µg/mL) |  | 8 µM (≈ 15.3 µg/mL) | 1 µM (≈ 1.91 µg/mL) | 8 µM (≈ 15.3 µg/mL) |  | 0 % lysis | 0 % lysis | 0 % lysis | 2 % lysis | 4 µM (≈ 7.65 µg/mL) | 32 µM (≈ 61.2 µg/mL) | >32 µM
5 | C[C@@H](NC(=O)[C@@H](C)NC(=O)[C@@H](Cc1ccccc1)NC(=O)[C@@H](C)NC(=O)[C@@H](C)NC(=O)[C@@H](Cc1c[nH]c2ccccc12)NC(=O)[C@@H](C)NC(=O)[C@@H](C)NC(=O)[C@@H](Cc1ccccc1)NC(=O)[C@@H](C)NC(=O)[C@@H](C)NC(=O)[C@@H](CCCCN)NC(=O)[C@@H](CCCCN)NC(=O)[C@@H](CCCCN)NC(=O)[C@@H](CCCCN)NC(=O)[C@@H](CCCCN)NC(=O)[C@H](N)CCCCN)C(N)=O [A11-D F17-6K, kkkkkkaafaawaafaa-NH2] (H-[dK][dK][dK][dK][dK][dK][dA][dA][dF][dA][dA][dW][dA][dA][dF][dA][dA]-NH2) | 8 µM (≈ 14.7 µg/mL) |  | 2 µM (≈ 3.67 µg/mL) | 0.5 µM (≈ 0.918 µg/mL) | 4 µM (≈ 7.34 µg/mL) |  | 0 % lysis | 0 % lysis | 0 % lysis | 2 % lysis | 4 µM (≈ 7.34 µg/mL) | 32 µM (≈ 58.7 µg/mL) | >32 µM
6 | C[C@H](NC(=O)[C@H](C)NC(=O)[C@H](Cc1ccccc1)NC(=O)[C@H](C)NC(=O)[C@H](C)NC(=O)[C@H](Cc1c[nH]c2ccccc12)NC(=O)[C@H](C)NC(=O)[C@H](C)NC(=O)[C@H](Cc1ccccc1)NC(=O)[C@H](C)NC(=O)[C@H](C)NC(=O)[C@H](CCCNC(=N)N)NC(=O)[C@H](CCCNC(=N)N)NC(=O)[C@H](CCCNC(=N)N)NC(=O)[C@H](CCCNC(=N)N)NC(=O)[C@H](CCCNC(=N)N)NC(=O)[C@@H](N)CCCNC(=N)N)C(N)=O [Peptide F17-6R, RRRRRRAAFAAWAAFAA-NH2] (H-RRRRRRAAFAAWAAFAA-NH2; N-terminus assumed) | 8 µM (≈ 16 µg/mL) | 0.5 µM (≈ 1 µg/mL) | 4 µM (≈ 8.01 µg/mL) | 1 µM (≈ 2 µg/mL) | 4 µM (≈ 8.01 µg/mL) | 0.5 µM (≈ 1 µg/mL) | 14 % lysis | 26 % lysis | 1 % lysis | 3 % lysis |  |  | 
